Assay results: paper doi:10.1101/2025.11.05.686689v1 (biorxiv, 2025)

Target: CAPON (NOS1AP), recombinant, C-terminal His tag (Homo sapiens, UniProt O75052)
Test: microscale thermophoresis
Assay type: binding

Chain of CAPON (NOS1AP), recombinant, C-terminal His tag (O75052 whole entry): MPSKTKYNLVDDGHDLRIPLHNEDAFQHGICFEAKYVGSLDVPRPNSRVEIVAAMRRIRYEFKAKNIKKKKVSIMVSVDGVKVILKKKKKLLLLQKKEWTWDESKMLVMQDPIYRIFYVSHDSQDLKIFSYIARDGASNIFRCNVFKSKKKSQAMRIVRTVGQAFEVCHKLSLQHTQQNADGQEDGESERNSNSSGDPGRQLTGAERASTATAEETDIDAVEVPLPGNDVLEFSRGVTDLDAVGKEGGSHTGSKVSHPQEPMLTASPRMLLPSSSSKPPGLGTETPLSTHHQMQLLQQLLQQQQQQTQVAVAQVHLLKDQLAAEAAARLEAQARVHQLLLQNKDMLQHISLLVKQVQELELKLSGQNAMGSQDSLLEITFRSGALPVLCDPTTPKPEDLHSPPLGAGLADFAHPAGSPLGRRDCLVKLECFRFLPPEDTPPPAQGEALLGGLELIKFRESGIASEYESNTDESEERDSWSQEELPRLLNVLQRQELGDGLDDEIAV

Kd: 74 ± 15 µM
SMILES: COc1ccc(NC(=O)c2ccco2)cc1NC(=O)c1cc2ccccc2cc1OC [MA32]
